Consider seven compounds from patent publication US7465848B2, “Zebrafish assay” (priority 2002, dated 2008).

Data set [1] deals with zebrafish KCNH2. Nature of the data set: Zebrafish KCNH2 knock-down with antisense morpholino, heart rate. In kind it is in vivo, Danio rerio. The following applies: about 5 nL injected at the single cell stage. As to the method:
Approximately 5 nL of the morpholino antisense oligonucleotide diluted in Danieau's solution at the concentrations shown were injected into the zebrafish embryo at the single cell stage. The zebrafish KCNH2 morpholino was directed against the splice donor site of the sixth exon of the zebrafish KCNH2 ortholog (5′-[…]-3′; SEQ ID NO:2).

For data set [2], the system named is zebrafish. Particulars: for effect on zebrafish heart rate (bradycardia) in the initial screen: compound added to medium at 48 hpf, 1, 10, 100 mcg/ml, highest non-lethal concentration, ventricular rate. As to the method: TubingenAB zebrafish embryos were reared in E3 Media (5 mM NaCl, 0.17 mM KCl, 0.33 mM MgCl2, 0.33 mM CaCl2). At 24 hours post fertilization (hpf) the embryos were distributed into 96 well plates, 3-5 embryos per well with […] of E3 supplemented with phenylthiourea at 0.03 g/l to inhibit pigmentation.
DMSO alone was used as a control. HR measurement: 15 second video recordings were obtained from each well using a Nikon TE200 microscope fitted with a computer controlled stage, and a Hamamatsu ORCA-ER camera. One hundred twenty-eight frames with an exposure time of 90 ms were recorded for each video. Digital movies were taken for each well, one from each quadrant. These video clips were stored digitally.
Offline analysis was performed with commercially available imaging software (Metamorph Software, Universal Imaging). The average pixel density was measured for a region of interest over the heart, and these densities were plotted against time. […] The frequency spectrum was plotted and the peak was reported in a spreadsheet. Manual review of both time domain and frequency domain data as well as the peak frequency was performed to ensure the validity of the data. Fast-Fourier Transform was performed to determine HR. […] Each compound was tested at 1, 10, and 100 mcg/ml and the highest, non-lethal concentration chosen for HR effect. A two-tailed Student's t-test was performed to determine statistical significance.

As to “5′-CCGTCGTACAGGCATGTTGTCCTA-3′ (all phosphorodiamidate morpholino (PMO)) [antisense morpholino]”, the figures for the “effect of KCNH2 antisense morpholino on zebrafish heart rate” value in data set [1] and in data set [1] (listed as antisense morpholino oligonucleotides directed against zebrafish KCNH2) were “elicited bradycardia in a dose-dependent manner” and “dose-dependent effect on HR”, respectively.
`CCN(CC)CCNC(=O)c1ccc(NC(C)=O)cc1` [N-acetyl-procainamide]: the “effect on zebrafish heart rate (bradycardia) in the initial screen” value in data set [2] is on record as “failed to cause bradycardia”.
On to `CN/C(=N/CCSCc1nc[nH]c1C)NC#N` [cimetidine], for which, in data set [2] (in vivo), the “drug-drug interaction on HR, cimetidine and terfenadine” value is “interaction of cimetidine and terfenadine”.
With `COc1cc(N)c(Cl)cc1C(=O)NC1CCN(CCCOc2ccc(F)cc2)CC1OC` (centres unmarked) [cisapride], the “change of ED50 on HR for cisapride with increasing doses of erythromycin” value in data set [2] (cisapride in combination with erythromycin (FIG. 2C)) is given as “ten-fold decrease”.
Take `CC[C@H]1OC(=O)[C@H](C)[C@@H](O[C@H]2C[C@@](C)(OC)[C@@H](O)[C@H](C)O2)[C@H](C)[C@@H](O[C@@H]2O[C@H](C)C[C@H](N(C)C)[C@H]2O)[C@](C)(O)C[C@@H](C)C(=O)[C@H](C)[C@@H](O)[C@]1(C)O` [erythromycin]: the “absorption into the zebrafish embryo” value in data set [2] (in vivo) is given as “is absorbed”.
Regarding `CC(=O)N1CCN(c2ccc(OCC3COC(Cn4ccnc4)(c4ccc(Cl)cc4Cl)O3)cc2)CC1` (centres unmarked) [ketoconazole], the “drug-drug interaction on HR, ketoconazole and terfenadine” value in data set [2] (in vivo) is given as “faithfully reproduced”.
For the compound `N=C(N)c1ccc(OCCCCCOc2ccc(C(=N)N)cc2)cc1` [pentamadine], in data set [2], the “effect on zebrafish heart rate (bradycardia) in the initial screen” value was “failed to cause bradycardia”.
